Like-named read-outs stand apart in the source and are kept apart here.
Key:
[1] = cited from earlier work
[2] = samples >20 h postdose, median (IQR)
[3] = tested on: hospitalized patients with COVID‐19; conditions: cited from earlier work
[4] = cited from earlier work; remark: listed apart in the source
[5] = imatinib N = 197 vs placebo N = 188

Structure (SMILES)	Metabolite AUC as % of the parent AUC ([1]; formed by CYP3A4)	Activity of the metabolite ([1]; relative to imatinib)	Observed total imatinib plasma concentration Ctrough ([2]; COVID-19 subset 1 (model building))	Observed total imatinib plasma concentration Ctrough ([2]; COVID-19 subset 2 (validation set))	Drug excreted by renal excretion [1] [%]	Drug excreted via the feces [1] [%]	Excreted unchanged ([1]; of the excreted drug) [%]	Bioavailability ([1]; oral)	Premature treatment stop due to gastrointestinal (GI) toxicity ([3]; CounterCOVID)	Duration of invasive mechanical ventilation compared with placebo [3, 5]	Mortality compared with placebo [3, 5]	Protein bound in blood [4] [%]
Cc1ccc(NC(=O)c2ccc(CN3CCNCC3)cc2)cc1Nc1nccc(-c2cccnc2)n1 [N‐desmethyl imatinib]	~ 10%	active	–	–	–	–	–	–	–	–	–	–
Cc1ccc(NC(=O)c2ccc(CN3CCN(C)CC3)cc2)cc1Nc1nccc(-c2cccnc2)n1 [imatinib]	–	–	2156 (738–4179) µg/L	1791 (928.4–3204) µg/L	13	68	25	almost complete	more imatinib treated patients stopped treatment prematurely	shorter	significantly lower	> 95
